# Measurements from ChEMBL document CHEMBL1201862, “PubChem BioAssay data set” (2004).
# The source made the active and inactive calls.
# Columns and labels:
# [1] = molecular target: T1, Polyadenylate-binding protein 1 (Homo sapiens, UniProt P11940); assay: MLLE binding blockers, Cy5 peptide tracer – biochemical, fluorescence polarization, Cy5-PAM2 peptide, secondary, miRNA deadenylation inhibitor project, dose response (AID 602260); type: functional; conditions: read-out: IC50_Mean
# [2] = molecular target: T1, Polyadenylate-binding protein 1; assay: MLLE domain peptide-binding blockers, IC50 – biochemical, fluorescence polarization, FITC-PAM2 peptide, dose response (AID 602259); type: functional; conditions: read-out: IC50_Mean
# [3] = luciferase reporter signal suppression in cells – H4 neuroglioma cells, luminescence, dose response (AID 1990); type: functional, cell-based
# [4] = Luminescence Cell-Based Dose Response HTS to Identify Inhibitors of 5'UTR Stem-Loop Driven Prion Protein mRNA Translation in H4 Neuroglioblastoma Cells. [Related pubchem assays: 1827 (Project Summary), 1813 (Primary HTS)]; type: functional
# [5] = alpha-synuclein stem-loop luciferase translation blockers – H4 neuroglioma cells, luminescence, confirmation (AID 1988); type: functional, cell-based
# [6] = Trypanosoma cruzi growth suppression in host cells – NIH3T3 host cells, beta-gal luminescence, confirmation (AID 2044); type: functional, cell-based;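 further: intracellular parasites grown in NIH/3T3 mouse fibroblasts as host cells; luminescent beta-galactosidase reporter signal from transgenic T. cruzi replicating inside host cells; inhibitors lower the luminescence signal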
# [7] = NIH3T3 cell viability loss – ATP luminescence, mouse fibroblasts, counter-screen, dose response (AID 2010); type: functional, cell-based;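 further: cells exposed to compound for about 90 hours before reading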
# [8] = system: INS1; assay: INS-1E survival protection against cytokine death – cell-based, luminescence, retest, dose response (AID 449756); type: functional; conditions: Rattus norvegicus;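 further: cell death triggered by IL-1 beta plus TNF-alpha plus IFN-gamma mixture; protective hits raise ATP signal compared with cytokine alone wells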
# [9] = molecular target: T2, Protein skinhead-1 (Caenorhabditis elegans, UniProt P34707); type: functional
# T2 sequence (P34707 whole entry): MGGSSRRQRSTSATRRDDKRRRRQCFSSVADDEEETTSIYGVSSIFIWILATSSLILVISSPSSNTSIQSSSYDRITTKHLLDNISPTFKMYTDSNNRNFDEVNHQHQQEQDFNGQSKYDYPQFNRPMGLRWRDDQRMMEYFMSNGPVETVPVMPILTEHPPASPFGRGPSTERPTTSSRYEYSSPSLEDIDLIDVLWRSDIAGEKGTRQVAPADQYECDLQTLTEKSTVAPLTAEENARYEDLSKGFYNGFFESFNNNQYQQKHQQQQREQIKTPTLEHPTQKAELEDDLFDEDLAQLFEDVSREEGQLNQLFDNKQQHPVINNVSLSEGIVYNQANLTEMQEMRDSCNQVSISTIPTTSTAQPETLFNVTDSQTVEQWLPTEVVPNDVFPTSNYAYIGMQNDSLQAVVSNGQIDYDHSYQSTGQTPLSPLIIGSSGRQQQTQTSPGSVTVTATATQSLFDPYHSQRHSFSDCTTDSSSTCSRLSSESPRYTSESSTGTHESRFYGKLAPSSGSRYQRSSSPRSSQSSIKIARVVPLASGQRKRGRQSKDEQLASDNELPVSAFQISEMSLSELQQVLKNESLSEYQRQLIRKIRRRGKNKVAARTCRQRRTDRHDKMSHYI
# [10] = viability of PTEN-deleted HCT116 cells – cell-based, HCT116 PTEN knockout, dose response (AID 1047); type: functional;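 further: HCT116 colon tumor cells with PTEN knocked out; cells exposed to compound for 60 hours before readout; potency for loss of cell viability measured by luminescence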
# [11] = viability of HCT116 lacking mutant beta-catenin – cell-based, human colon tumor, dose response (AID 1045); type: functional;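 further: HCT116 colon tumor cells with beta catenin knocked out; cells exposed to compound for 60 hours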
# [12] = molecular target: T3, Fatty acid synthase (Homo sapiens, UniProt P49327); assay: inhibition of human FAS-TE enzyme activity – biochemical, endpoint fluorescence intensity, uHTS hits, dose response (AID 624327); type: functional;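 further: fluorescence from hydrolysis of an O-methyl fluorescein acyl ester substrate by the enzyme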
# T3 sequence (P49327 whole entry): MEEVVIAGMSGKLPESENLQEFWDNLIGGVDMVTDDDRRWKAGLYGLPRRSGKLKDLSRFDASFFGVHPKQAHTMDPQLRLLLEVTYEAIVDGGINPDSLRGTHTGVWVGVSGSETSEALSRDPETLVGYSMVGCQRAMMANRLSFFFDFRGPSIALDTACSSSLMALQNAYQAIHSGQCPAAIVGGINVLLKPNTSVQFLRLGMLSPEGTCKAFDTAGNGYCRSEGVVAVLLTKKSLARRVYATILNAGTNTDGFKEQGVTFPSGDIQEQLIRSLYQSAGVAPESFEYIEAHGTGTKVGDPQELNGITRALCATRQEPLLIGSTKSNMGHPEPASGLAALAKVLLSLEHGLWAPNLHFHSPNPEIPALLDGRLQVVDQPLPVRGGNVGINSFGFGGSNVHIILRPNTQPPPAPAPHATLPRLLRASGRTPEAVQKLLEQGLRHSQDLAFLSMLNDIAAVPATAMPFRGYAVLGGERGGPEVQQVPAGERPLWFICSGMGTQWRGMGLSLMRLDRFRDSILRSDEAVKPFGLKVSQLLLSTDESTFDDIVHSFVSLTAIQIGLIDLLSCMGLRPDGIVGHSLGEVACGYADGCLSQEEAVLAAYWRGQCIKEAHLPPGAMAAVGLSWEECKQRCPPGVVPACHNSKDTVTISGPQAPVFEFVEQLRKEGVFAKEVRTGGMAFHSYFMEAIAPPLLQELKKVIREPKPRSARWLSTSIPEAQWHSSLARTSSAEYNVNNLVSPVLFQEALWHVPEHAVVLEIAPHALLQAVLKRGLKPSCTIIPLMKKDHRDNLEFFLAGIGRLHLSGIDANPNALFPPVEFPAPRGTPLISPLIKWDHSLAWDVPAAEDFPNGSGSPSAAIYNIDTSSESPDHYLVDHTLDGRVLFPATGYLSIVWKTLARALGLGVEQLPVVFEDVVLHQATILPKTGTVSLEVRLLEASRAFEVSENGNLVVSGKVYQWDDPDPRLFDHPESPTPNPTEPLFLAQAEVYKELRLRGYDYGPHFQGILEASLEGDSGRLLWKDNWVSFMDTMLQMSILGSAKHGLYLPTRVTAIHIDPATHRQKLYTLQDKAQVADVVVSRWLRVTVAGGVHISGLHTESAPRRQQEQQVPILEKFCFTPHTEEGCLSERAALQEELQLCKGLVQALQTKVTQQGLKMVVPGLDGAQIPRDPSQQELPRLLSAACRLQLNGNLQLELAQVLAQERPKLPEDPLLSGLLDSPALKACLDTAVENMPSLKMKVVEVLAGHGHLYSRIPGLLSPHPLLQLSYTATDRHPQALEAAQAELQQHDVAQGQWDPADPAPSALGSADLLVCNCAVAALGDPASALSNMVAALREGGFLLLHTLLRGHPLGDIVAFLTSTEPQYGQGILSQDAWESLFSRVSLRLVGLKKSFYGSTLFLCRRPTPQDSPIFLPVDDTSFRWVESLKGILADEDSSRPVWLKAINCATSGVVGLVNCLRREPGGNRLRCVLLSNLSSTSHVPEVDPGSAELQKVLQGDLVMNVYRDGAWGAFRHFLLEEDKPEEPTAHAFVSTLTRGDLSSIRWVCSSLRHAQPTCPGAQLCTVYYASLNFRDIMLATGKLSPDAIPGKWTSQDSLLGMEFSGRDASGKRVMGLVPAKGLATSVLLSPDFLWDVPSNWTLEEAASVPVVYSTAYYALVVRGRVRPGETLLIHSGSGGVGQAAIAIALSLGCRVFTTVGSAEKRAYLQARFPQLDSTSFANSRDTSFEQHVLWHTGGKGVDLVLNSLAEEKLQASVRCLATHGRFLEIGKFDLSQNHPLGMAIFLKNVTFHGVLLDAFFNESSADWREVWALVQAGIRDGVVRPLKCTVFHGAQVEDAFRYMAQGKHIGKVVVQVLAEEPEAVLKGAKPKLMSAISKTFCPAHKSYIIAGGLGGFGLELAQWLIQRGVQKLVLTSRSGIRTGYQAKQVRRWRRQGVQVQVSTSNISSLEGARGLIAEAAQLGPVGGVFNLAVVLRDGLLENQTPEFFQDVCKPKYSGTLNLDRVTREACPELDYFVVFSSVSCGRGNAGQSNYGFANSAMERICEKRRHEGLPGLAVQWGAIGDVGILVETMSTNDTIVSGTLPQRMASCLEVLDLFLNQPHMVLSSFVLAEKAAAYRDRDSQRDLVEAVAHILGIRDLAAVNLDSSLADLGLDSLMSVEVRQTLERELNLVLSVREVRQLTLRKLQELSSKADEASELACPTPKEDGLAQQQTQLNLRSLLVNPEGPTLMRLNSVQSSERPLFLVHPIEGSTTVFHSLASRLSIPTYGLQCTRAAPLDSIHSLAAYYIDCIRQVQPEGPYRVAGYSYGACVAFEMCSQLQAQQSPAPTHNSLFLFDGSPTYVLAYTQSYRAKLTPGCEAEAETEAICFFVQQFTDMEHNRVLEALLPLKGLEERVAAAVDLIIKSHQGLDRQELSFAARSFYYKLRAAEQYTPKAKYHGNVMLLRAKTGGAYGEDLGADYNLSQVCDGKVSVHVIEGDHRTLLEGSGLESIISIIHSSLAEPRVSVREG
# [13] = molecular target: T3, Fatty acid synthase; assay: inhibition of human FAS-TE enzyme activity – biochemical, kinetic fluorescence intensity, dose response (AID 624326); type: functional;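 further: rate of fluorescence rise from hydrolysis of a fluorogenic O-methyl fluorescein ester substrate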
# [14] = cells; type: functional
# [15] = molecular target: FAD-linked sulfhydryl oxidase ALR (Homo sapiens, UniProt P55789); assay: ALR-catalysed DTT oxidation blockers – biochemical, H2O2 detection, luminescence, cherry-pick, dose response (AID 493248)
# FAD-linked sulfhydryl oxidase ALR, sequence (P55789 whole entry): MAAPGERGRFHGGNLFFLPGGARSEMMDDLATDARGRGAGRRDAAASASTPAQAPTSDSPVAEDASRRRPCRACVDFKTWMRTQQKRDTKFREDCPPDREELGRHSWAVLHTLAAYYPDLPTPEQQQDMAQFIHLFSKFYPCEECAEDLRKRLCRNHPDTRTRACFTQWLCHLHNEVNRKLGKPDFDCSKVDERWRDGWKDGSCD
# [16] = molecular target: T4, Corticotropin-releasing factor receptor 2/Corticotropin-releasing factor-binding protein (Homo sapiens, UniProt P24387+Q13324); assay: Dose Response confirmation of uHTS hits for small molecule antagonists of the CRF-binding protein and CRF-R2 receptor complex.; type: functional; conditions: read-out: IC50_Mean
# T4 sequence (Q13324 whole entry): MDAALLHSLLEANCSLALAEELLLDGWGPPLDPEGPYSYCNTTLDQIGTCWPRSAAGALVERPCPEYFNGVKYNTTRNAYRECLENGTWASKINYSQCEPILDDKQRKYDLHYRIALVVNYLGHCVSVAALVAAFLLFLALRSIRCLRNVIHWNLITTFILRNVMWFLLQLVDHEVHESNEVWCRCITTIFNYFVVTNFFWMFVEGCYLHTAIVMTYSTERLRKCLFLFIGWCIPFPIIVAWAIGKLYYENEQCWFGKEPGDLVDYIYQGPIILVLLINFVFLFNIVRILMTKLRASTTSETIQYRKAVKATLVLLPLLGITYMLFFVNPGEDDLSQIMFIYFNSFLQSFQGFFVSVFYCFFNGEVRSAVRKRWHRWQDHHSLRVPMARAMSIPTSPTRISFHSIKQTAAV
# T4 sequence (P24387 whole entry): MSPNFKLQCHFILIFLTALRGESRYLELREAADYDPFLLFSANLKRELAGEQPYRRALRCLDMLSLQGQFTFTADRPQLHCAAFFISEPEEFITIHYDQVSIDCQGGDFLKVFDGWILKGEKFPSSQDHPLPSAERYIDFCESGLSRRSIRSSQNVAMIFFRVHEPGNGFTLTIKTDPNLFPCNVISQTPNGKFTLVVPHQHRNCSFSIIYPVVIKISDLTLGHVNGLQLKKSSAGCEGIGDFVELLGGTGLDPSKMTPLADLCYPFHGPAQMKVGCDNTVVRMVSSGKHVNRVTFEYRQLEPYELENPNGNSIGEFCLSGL
# [17] = molecular target: T4, Corticotropin-releasing factor receptor 2/Corticotropin-releasing factor-binding protein; assay: activators of CRF receptor 2 with binding protein – uHTS hits, confirmation (AID 602473); type: functional; conditions: read-out: EC50_Mean
# T1 sequence (P11940 whole entry, the tested form may be a part): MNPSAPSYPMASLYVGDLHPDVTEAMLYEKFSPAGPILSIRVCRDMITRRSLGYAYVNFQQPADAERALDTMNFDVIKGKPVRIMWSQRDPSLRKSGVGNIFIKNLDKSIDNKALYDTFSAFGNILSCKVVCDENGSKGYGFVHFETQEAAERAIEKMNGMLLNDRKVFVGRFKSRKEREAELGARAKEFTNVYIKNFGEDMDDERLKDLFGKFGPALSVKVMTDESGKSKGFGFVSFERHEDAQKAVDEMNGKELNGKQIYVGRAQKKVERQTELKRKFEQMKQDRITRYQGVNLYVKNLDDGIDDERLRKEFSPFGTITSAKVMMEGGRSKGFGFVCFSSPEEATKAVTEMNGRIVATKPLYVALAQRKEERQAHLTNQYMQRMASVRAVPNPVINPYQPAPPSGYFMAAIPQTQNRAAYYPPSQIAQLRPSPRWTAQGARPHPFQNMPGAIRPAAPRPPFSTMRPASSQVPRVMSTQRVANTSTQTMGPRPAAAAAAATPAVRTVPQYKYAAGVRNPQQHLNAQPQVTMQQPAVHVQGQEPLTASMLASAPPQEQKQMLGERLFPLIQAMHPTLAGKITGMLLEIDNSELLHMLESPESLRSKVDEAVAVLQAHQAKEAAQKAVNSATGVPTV
smiles,measurement,setting,value
O=C(COc1ccc(C(=S)N2CCOCC2)cc1Cl)Nc1ccccc1Cl,IC50,[1],> 66 µM (inactive)
same,IC50,[2],> 66 µM (inactive)
COc1cc(CNC(C)c2ccccc2)cc(Br)c1OCc1ccc(F)cc1 (stereo not drawn),EC50,[3],19.2 µM (active)
same,EC50,[4],> 120 µM (not active)
same,EC50,[5],17.7 µM (active)
same,EC50,[6],2.41 µM (active)
same,EC50,[7],> 60 µM (not active)
same,AC50,[8],6.99 µM (active)
same,IC50,[9],7.7 µM (active)
CCCOc1ccc(Cc2c(Cl)nc(SC)nc2NC)cc1,AC50,[8],3.53 µM (active)
Cc1cc(N2CCN(S(=O)(=O)c3ccc(Cl)cc3)CC2)c2ccccc2n1,EC50,[10],26.3 µM (active)
same,EC50,[11],24.9 µM (active)
same,AC50,[8],6.39 µM (active)
O=C(COc1ccc(Cl)cc1Cl)Nn1c(=S)[nH]c2ncccc2c1=O,IC50,[1],> 66 µM (inactive)
same,IC50,[2],> 66 µM (inactive)
O=C(COC(=O)c1cc([N+](=O)[O-])ccc1N1CCCC1)Nc1ccccc1OC(F)F,IC50,[12],8.72 µM (active)
same,IC50,[13],9.1 µM (active)
O=C(NC(=S)Nc1cc([N+](=O)[O-])ccc1O)c1cccnc1,IC50,[1],> 66 µM (inactive)
same,IC50,[2],> 66 µM (inactive)
O=C(Nc1nnc(-c2ccccc2Cl)o1)c1ccco1,IC50,[14],11.8 µM (active)
COc1ccccc1NC(=O)CN1CCSc2ccccc21,AC50,[15],1.32 µM (active)
CN1C[C@H](C(=O)N[C@]2(C)O[C@@]3(O)[C@@H]4CCCN4C(=O)[C@H](Cc4ccccc4)N3C2=O)CC2c3cccc4[nH]cc(c34)C[C@H]21 (stereo partly drawn),IC50,[12],9.27 µM (active)
same,IC50,[13],15.6 µM (active)
COC(=O)C1CCN(C(=O)COC(=O)c2cc([N+](=O)[O-])ccc2N2CCOCC2)CC1,IC50,[16],> 47.1 µM (inactive)
same,EC50,[17],> 53 µM (inactive)
same,IC50,[12],5.73 µM (active)
same,IC50,[13],3.96 µM (active)
CC(C)(C)c1ccc(OCCSc2nc3ccccc3n2CC(=O)O)cc1,IC50,[12],2.39 µM (active)
same,IC50,[13],2.14 µM (active)
CCCc1nnc(NC(=O)c2cc3ccccc3oc2=O)s1,IC50,[14],2.83 µM (active)
O=C(OCc1nnc(-c2ccccc2)o1)c1cc([N+](=O)[O-])ccc1Cl,IC50,[14],11.8 µM (active)
c1ccc(Cc2nnc3sc(-c4ccncc4)nn23)cc1,IC50,[1],> 66 µM (inactive)
same,IC50,[2],> 66 µM (inactive)
COc1ccc([C@H]2CC(=O)C=C(c3ccc(C)c([N+](=O)[O-])c3)C2)cc1,IC50,[12],2.65 µM (active)
same,IC50,[13],2.14 µM (active)
CC(=O)Nc1ccc(NC(=O)c2cc([N+](=O)[O-])cc([N+](=O)[O-])c2)cc1,EC50,[6],1.63 µM (active)
same,EC50,[7],> 60 µM (not active)
same,IC50,[14],13.9 µM (active)
